System: human cardiac progenitors
Assay: Induction of AVN phenotype in hPSC-derived cardiac progenitors, flow cytometry for NKX2-5+TBX3+ myocytes at day 20
Type: cell-based
Procedure: First, hPSCs were incubated in media containing BMP and Rho-associated protein kinase (ROCK) inhibitor on an orbital shaker to generate embryoid bodies (differentiation protocol day: 0). Then, cardiogenic mesoderm was induced using media containing 1-100 ng/mL BMP4, 1-100 ng/ml Activin A, 1-20 ng/mL bFGF, and 1-10 μM CHIR-99021 (differentiation protocol day: 1). […] The cardiogenic mesoderm can be analyzed at day 3/4 of differentiation for the expression of PDGFRa, RALDH2 and CD235a, and should be PDGFRa+RALDH2− and CD235a^low (max 50% positive).
Next, cardiac progenitors were induced using media that contained 0.5-10 μM IWP2 and 1-20 ng/mL VEGF (differentiation protocol day: 3). At this stage, the cardiac progenitors may be a mixed population of early stage (NKX2-5^−) and late stage (NKX2-5^+) cardiac progenitors which may be contractile or not. […] Culture was continued in media that contained 5 ng/mL VEGF until day 12 of the differentiation protocol. The culture was maintained until day 20 of the differentiation protocol before analysis. […] FIGS. 3B, 4B, 5A and 5B present the percentage of NKX2-5^+ TBX3^+ myocytes of total cells present in the culture.
A NKX2-5:GFP+TBX3:tdTomato+ transgenic double reporter hPSC line was cultured using the protocol described in Example 1. AVNLPCs were identified and isolated using Fluorescence-activated cell sorting (FACS), based on their expression of NKX2-5 and TBX3 and the associated expression of the fluorescent reporter (FIG. 2).

Compound: Cc1c[nH]c(-c2cnc(NCCNc3ccc(C#N)cn3)nc2-c2ccc(Cl)cc2Cl)n1 [CHIR-99021]
- Change in NKX2-5+TBX3+ AVNLPCs of total cell population at day 20 (9 uM CHIR from day 8-11, day 11-15 or day 15-18, n=5 (FIG. 3B)): significant increase
- CHIR-99021 concentration at which relatively more NKX2-5+TBX3+ myocytes were induced (3-15 μM used): 12 to 15 µM
- CHIR concentration giving highest percentage of NKX2-5+TBX3+ AVNLPCs (treatment day 8-11, day 20 analysis, n=5 (FIG. 4B)): 12 to 15 µM

Source: US20260022340A1, “ATRIOVENTRICULAR NODE-LIKE PACEMAKER CELLS” (UNIVERSITY HEALTH NETWORK, priority 2022, published 2026)
